Measurements: publication PMC10471729, “Luvadaxistat: A Novel Potent and Selective D-Amino Acid Oxidase Inhibitor Improves Cognitive and Social Deficits in Rodent Models for Schizophrenia” (Neurochemical Research, 2023)

Biological target: T1, D-amino acid oxidase (DAAO) (Mus musculus, UniProt P18894)
T1 construct: gene Dao
Experiment: cell-based

T1 sequence (P18894 whole entry): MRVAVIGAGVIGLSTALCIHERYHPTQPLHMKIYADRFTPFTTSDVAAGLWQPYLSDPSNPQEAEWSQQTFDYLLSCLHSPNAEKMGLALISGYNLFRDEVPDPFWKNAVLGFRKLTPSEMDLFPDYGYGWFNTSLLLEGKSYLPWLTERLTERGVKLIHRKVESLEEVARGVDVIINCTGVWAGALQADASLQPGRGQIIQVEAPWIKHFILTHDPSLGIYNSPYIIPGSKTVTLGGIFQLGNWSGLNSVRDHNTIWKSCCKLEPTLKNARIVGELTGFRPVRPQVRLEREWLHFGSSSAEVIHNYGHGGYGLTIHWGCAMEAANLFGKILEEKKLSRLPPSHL

O=c1[nH]nc(CCc2ccc(C(F)(F)F)cc2)cc1O [luvadaxistat]
IC50: 5.1 nM
